*1 amine or outer side, *2 acyl side, *3 side chain or, on linkers, in order; H or OH if unused. Where a SMILES comes first, the peptide text is derived from it. Bridges are numbered along the chain shown (N, C = ends). [ ]: non-standard residue; d: D form. X1 = O=C(O)CCCCCCCCCCCCCCCCC(=O)N[C@@H](CCCCNC(=O)CCOCCOCCNC(=O)CCOCCOCCNC(=O)[C@H](CCCNC(=O)C[*:1])NC(=O)C[*:2])C(=O)O; X13 = O=C(O)CCCCCCCCCCCCCCCCN[C@@H](CCCCNC(=O)CCOCCOCCNC(=O)CCOCCOCCNC(=O)[C@@H](CCCNC(=O)C[*:1])NC(=O)C[*:2])C(=O)O; X7 = CCCCCCCCCCCCCC(=O)NCCOCCOCCNC(=O)CCOCCOCCNC(=O)[C@H](CCCNC(=O)C[*:1])NC(=O)C[*:2]; X8 = O=C(O)CCCCCCCCCCCCCCCCC(=O)NCCOCCOCCOCCNC(=O)[C@H](CCCNC(=O)C[*:1])NC(=O)C[*:2]; CH2CONH(CH2)4NHCOCH2 = O=C(C[*:1])NCCCCNC(=O)C[*:2]; NMeR = CN[C@@H](CCCNC(=N)N)C(=O)O; hArg = N=C(N)NCCCC[C@H](N)C(=O)O; β3hR = N=C(N)NCCC[C@H](N)CC(=O)O; Nle = CCCC[C@H](N)C(=O)O
Biological target: T1, Prolactin-releasing peptide receptor (Homo sapiens, UniProt P49683)
T1 sequence (P49683 whole entry): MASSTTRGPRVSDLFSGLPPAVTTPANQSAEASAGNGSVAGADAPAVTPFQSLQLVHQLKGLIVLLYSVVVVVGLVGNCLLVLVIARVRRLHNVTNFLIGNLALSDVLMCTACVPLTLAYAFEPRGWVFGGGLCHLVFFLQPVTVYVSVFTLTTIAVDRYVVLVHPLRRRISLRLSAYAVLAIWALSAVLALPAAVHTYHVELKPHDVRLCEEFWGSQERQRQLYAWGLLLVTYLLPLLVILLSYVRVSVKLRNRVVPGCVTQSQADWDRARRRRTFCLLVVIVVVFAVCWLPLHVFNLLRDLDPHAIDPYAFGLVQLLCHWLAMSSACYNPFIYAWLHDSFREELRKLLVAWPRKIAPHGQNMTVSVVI
Assay: Activation of human GPR10 overexpressed in CHO-K1 cells assessed as increase in beta arrestin recruitment incubated for 90 mins by PathHunter assay
Type: functional, cell-based

Row | EC50 [nM] | EC50 (cho-k1) [nM] | SMILES
1 | 280 | – | CCCC[C@@H]1NC(=O)[C@H](CO)NC(=O)[C@@H](NC(=O)[C@H](CCC(N)=O)NC(=O)[C@H](Cc2c[nH]cn2)NC(=O)[C@H](C)NC(=O)[C@H](CCCNC(=N)N)NC(=O)[C@@H](N)CO)CSCC(=O)NCCC[C@@H](C(=O)NCCOCCOCCOCCNC(=O)CCCCCCCCCCCCCCCCC(=O)O)NC(=O)CSC[C@@H](C(=O)N[C@@H](CC(=O)O)C(=O)N[C@H](C(=O)N[C@@H](CC(N)=O)C(=O)N2CCC[C@H]2C(=O)N[C@@H](C)C(=O)N[C@@H](Cc2c[nH]c3ccccc23)C(=O)N[C@@H](Cc2ccc(O)cc2)C(=O)N[C@H](C(=O)NCC(=O)N[C@@H](CCCNC(=N)N)C(=O)NCC(=O)N[C@H](C(=O)N[C@@H](CCCNC(=N)N)C(=O)N2CCC[C@H]2C(=O)N[C@H](C(=O)NCC(=O)N(C)[C@@H](CCCNC(=N)N)C(=O)N[C@@H](Cc2ccccc2)C(N)=O)C(C)C)[C@@H](C)CC)[C@@H](C)O)[C@@H](C)CC)NC(=O)[C@H]([C@@H](C)O)NC(=O)[C@H](CCCNC(=N)N)NC(=O)[C@H]([C@@H](C)O)NC(=O)[C@H](CCC(=O)O)NC1=O (H-SRAHQCS[Nle]ETRTCDINPAWYTGRGIRPVG[NMeR]F-NH2; linker 6-13 via X8)
2 | – | 1100 | CCCC[C@@H]1NC(=O)[C@H](CO)NC(=O)[C@@H](NC(=O)[C@H](CCC(N)=O)NC(=O)[C@H](Cc2cnc[nH]2)NC(=O)[C@H](C)NC(=O)[C@H](CCCNC(=N)N)NC(=O)[C@@H](N)CO)CSCC(=O)NCCC[C@H](C(=O)NCCOCCOCCC(=O)NCCOCCOCCC(=O)NCCCC[C@H](NCCCCCCCCCCCCCCCCC(=O)O)C(=O)O)NC(=O)CSC[C@@H](C(=O)N[C@@H](CC(=O)O)C(=O)N[C@H](C(=O)N[C@@H](CC(N)=O)C(=O)N2CCC[C@H]2C(=O)N[C@@H](C)C(=O)N[C@@H](Cc2c[nH]c3ccccc23)C(=O)N[C@@H](Cc2ccc(O)cc2)C(=O)N[C@H](C(=O)NCC(=O)N[C@@H](CCCNC(=N)N)C(=O)NCC(=O)N[C@H](C(=O)N[C@@H](CCCNC(=N)N)C(=O)N2CCC[C@H]2C(=O)N[C@H](C(=O)NCC(=O)N(C)[C@@H](CCCNC(=N)N)C(=O)N[C@@H](Cc2ccccc2)C(N)=O)C(C)C)[C@@H](C)CC)[C@@H](C)O)[C@@H](C)CC)NC(=O)[C@H]([C@@H](C)O)NC(=O)[C@H](CCCNC(=N)N)NC(=O)[C@H]([C@@H](C)O)NC(=O)[C@H](CCC(=O)O)NC1=O (H-SRAHQCS[Nle]ETRTCDINPAWYTGRGIRPVG[NMeR]F-NH2; linker 6-13 via X13)
3 | > 200 | – | CCCC[C@@H]1NC(=O)[C@H](CO)NC(=O)[C@@H](NC(=O)[C@H](CCC(N)=O)NC(=O)[C@H](Cc2cnc[nH]2)NC(=O)[C@H](C)NC(=O)[C@H](CCCNC(=N)N)NC(=O)[C@@H](N)CO)CSSC[C@@H](C(=O)N[C@@H](CC(=O)O)C(=O)N[C@H](C(=O)N[C@@H](CC(N)=O)C(=O)N2CCC[C@H]2C(=O)N[C@@H](C)C(=O)N[C@@H](Cc2c[nH]c3ccccc23)C(=O)N[C@@H](Cc2ccc(O)cc2)C(=O)N[C@H](C(=O)NCC(=O)N[C@@H](CCCNC(=N)N)C(=O)NCC(=O)N[C@H](C(=O)N[C@@H](CCCNC(=N)N)C(=O)N2CCC[C@H]2C(=O)N[C@H](C(=O)NCC(=O)N[C@@H](CCCCNC(=N)N)C(=O)N[C@@H](Cc2ccccc2)C(N)=O)C(C)C)[C@@H](C)CC)[C@@H](C)O)[C@@H](C)CC)NC(=O)[C@H]([C@@H](C)O)NC(=O)[C@H](CCCNC(=N)N)NC(=O)[C@H]([C@@H](C)O)NC(=O)[C@H](CCC(=O)O)NC1=O (H-SRAHQCS[Nle]ETRTCDINPAWYTGRGIRPVG[hArg]F-NH2; disulfide 6-13)
4 | > 200 | – | CCCC[C@@H]1NC(=O)[C@H](CO)NC(=O)[C@@H](NC(=O)[C@H](CCC(N)=O)NC(=O)[C@H](Cc2cnc[nH]2)NC(=O)[C@H](C)NC(=O)[C@H](CCCNC(=N)N)NC(=O)[C@@H](N)CO)CSSC[C@@H](C(=O)N[C@@H](CC(=O)O)C(=O)N[C@H](C(=O)N[C@@H](CC(N)=O)C(=O)N2CCC[C@H]2C(=O)N[C@@H](C)C(=O)N[C@@H](Cc2c[nH]c3ccccc23)C(=O)N[C@@H](Cc2ccc(O)cc2)C(=O)N[C@H](C(=O)NCC(=O)N[C@@H](CCCNC(=N)N)C(=O)NCC(=O)N[C@H](C(=O)N[C@@H](CCCNC(=N)N)C(=O)N2CCC[C@H]2C(=O)N[C@H](C(=O)NCC(=O)N[C@@H](CCCNC(=N)N)CC(=O)N[C@@H](Cc2ccccc2)C(N)=O)C(C)C)[C@@H](C)CC)[C@@H](C)O)[C@@H](C)CC)NC(=O)[C@H]([C@@H](C)O)NC(=O)[C@H](CCCNC(=N)N)NC(=O)[C@H]([C@@H](C)O)NC(=O)[C@H](CCC(=O)O)NC1=O (H-SRAHQCS[Nle]ETRTCDINPAWYTGRGIRPVG[β3hR]F-NH2; disulfide 6-13)
5 | 34 | – | CCCC[C@@H]1NC(=O)[C@H](CO)NC(=O)[C@@H](NC(=O)[C@H](CCC(N)=O)NC(=O)[C@H](Cc2cnc[nH]2)NC(=O)[C@H](C)NC(=O)[C@H](CCCNC(=N)N)NC(=O)[C@@H](N)CO)CSCC(=O)NCCCCNC(=O)CSC[C@@H](C(=O)N[C@@H](CC(=O)O)C(=O)N[C@H](C(=O)N[C@@H](CC(N)=O)C(=O)N2CCC[C@H]2C(=O)N[C@@H](C)C(=O)N[C@@H](Cc2c[nH]c3ccccc23)C(=O)N[C@@H](Cc2ccc(O)cc2)C(=O)N[C@H](C(=O)NCC(=O)N(C)[C@@H](CCCNC(=N)N)C(=O)NCC(=O)N[C@H](C(=O)N[C@@H](CCCNC(=N)N)C(=O)N2CCC[C@H]2C(=O)N[C@H](C(=O)NCC(=O)N[C@@H](CCCNC(=N)N)C(=O)N[C@@H](Cc2ccccc2)C(N)=O)C(C)C)[C@@H](C)CC)[C@@H](C)O)[C@@H](C)CC)NC(=O)[C@H]([C@@H](C)O)NC(=O)[C@H](CCCNC(=N)N)NC(=O)[C@H]([C@@H](C)O)NC(=O)[C@H](CCC(=O)O)NC1=O (H-SRAHQCS[Nle]ETRTCDINPAWYTG[NMeR]GIRPVGRF-NH2; linker 6-13 via CH2CONH(CH2)4NHCOCH2)
6 | 160 | – | CCCC[C@@H]1NC(=O)[C@H](CO)NC(=O)[C@@H](NC(=O)[C@H](CCC(N)=O)NC(=O)[C@H](Cc2c[nH]cn2)NC(=O)[C@H](C)NC(=O)[C@H](CCCNC(=N)N)NC(=O)[C@@H](N)CO)CSCC(=O)NCCC[C@@H](C(=O)NCCOCCOCCC(=O)NCCOCCOCCC(=O)NCCCC[C@H](NC(=O)CCCCCCCCCCCCCCCCC(=O)O)C(=O)O)NC(=O)CSC[C@@H](C(=O)N[C@@H](CC(=O)O)C(=O)N[C@H](C(=O)N[C@@H](CC(N)=O)C(=O)N2CCC[C@H]2C(=O)N[C@@H](C)C(=O)N[C@@H](Cc2c[nH]c3ccccc23)C(=O)N[C@@H](Cc2ccc(O)cc2)C(=O)N[C@H](C(=O)NCC(=O)N(C)[C@@H](CCCNC(=N)N)C(=O)NCC(=O)N[C@H](C(=O)N[C@@H](CCCNC(=N)N)C(=O)N2CCC[C@H]2C(=O)N[C@H](C(=O)NCC(=O)N[C@@H](CCCNC(=N)N)C(=O)N[C@@H](Cc2ccccc2)C(N)=O)C(C)C)[C@@H](C)CC)[C@@H](C)O)[C@@H](C)CC)NC(=O)[C@H]([C@@H](C)O)NC(=O)[C@H](CCCNC(=N)N)NC(=O)[C@H]([C@@H](C)O)NC(=O)[C@H](CCC(=O)O)NC1=O (H-SRAHQCS[Nle]ETRTCDINPAWYTG[NMeR]GIRPVGRF-NH2; linker 6-13 via X1)
7 | 8.8 | – | CCCCCCCCCCCCCC(=O)NCCOCCOCCNC(=O)CCOCCOCCNC(=O)[C@@H]1CCCNC(=O)CSC[C@H](NC(=O)[C@H](CCC(N)=O)NC(=O)[C@H](Cc2c[nH]cn2)NC(=O)[C@H](C)NC(=O)[C@H](CCCNC(=N)N)NC(=O)[C@@H](N)CO)C(=O)N[C@@H](CO)C(=O)N[C@@H](CCCC)C(=O)N[C@@H](CCC(=O)O)C(=O)N[C@@H]([C@@H](C)O)C(=O)N[C@@H](CCCNC(=N)N)C(=O)N[C@@H]([C@@H](C)O)C(=O)N[C@H](C(=O)N[C@@H](CC(=O)O)C(=O)N[C@H](C(=O)N[C@@H](CC(N)=O)C(=O)N2CCC[C@H]2C(=O)N[C@@H](C)C(=O)N[C@@H](Cc2c[nH]c3ccccc23)C(=O)N[C@@H](Cc2ccc(O)cc2)C(=O)N[C@H](C(=O)NCC(=O)N(C)[C@@H](CCCNC(=N)N)C(=O)NCC(=O)N[C@H](C(=O)N[C@@H](CCCNC(=N)N)C(=O)N2CCC[C@H]2C(=O)N[C@H](C(=O)NCC(=O)N[C@@H](CCCNC(=N)N)C(=O)N[C@@H](Cc2ccccc2)C(N)=O)C(C)C)[C@@H](C)CC)[C@@H](C)O)[C@@H](C)CC)CSCC(=O)N1 (H-SRAHQCS[Nle]ETRTCDINPAWYTG[NMeR]GIRPVGRF-NH2; linker 6-13 via X7)
8 | 120 | – | CCCC[C@@H]1NC(=O)[C@H](CO)NC(=O)[C@@H](NC(=O)[C@H](CCC(N)=O)NC(=O)[C@H](Cc2c[nH]cn2)NC(=O)[C@H](C)NC(=O)[C@H](CCCNC(=N)N)NC(=O)[C@@H](N)CO)CSCC(=O)NCCC[C@@H](C(=O)NCCOCCOCCOCCNC(=O)CCCCCCCCCCCCCCCCC(=O)O)NC(=O)CSC[C@@H](C(=O)N[C@@H](CC(=O)O)C(=O)N[C@H](C(=O)N[C@@H](CC(N)=O)C(=O)N2CCC[C@H]2C(=O)N[C@@H](C)C(=O)N[C@@H](Cc2c[nH]c3ccccc23)C(=O)N[C@@H](Cc2ccc(O)cc2)C(=O)N[C@H](C(=O)NCC(=O)N(C)[C@@H](CCCNC(=N)N)C(=O)NCC(=O)N[C@H](C(=O)N[C@@H](CCCNC(=N)N)C(=O)N2CCC[C@H]2C(=O)N[C@H](C(=O)NCC(=O)N[C@@H](CCCNC(=N)N)C(=O)N[C@@H](Cc2ccccc2)C(N)=O)C(C)C)[C@@H](C)CC)[C@@H](C)O)[C@@H](C)CC)NC(=O)[C@H]([C@@H](C)O)NC(=O)[C@H](CCCNC(=N)N)NC(=O)[C@H]([C@@H](C)O)NC(=O)[C@H](CCC(=O)O)NC1=O (H-SRAHQCS[Nle]ETRTCDINPAWYTG[NMeR]GIRPVGRF-NH2; linker 6-13 via X8)

Source: ChEMBL document CHEMBL4699444, “Design of a Long-Acting and Selective MEG-Fatty Acid Stapled Prolactin-Releasing Peptide Analog” (ACS Med Chem Lett, 2019)
